Data: patent US20150038430A1, “THERAPEUTIC PEPTIDOMIMETIC MACROCYCLES” (AILERON Therapeutics, Inc., priority 2008, published 2015)
Numbered stars: 1 amine (or outer) side, 2 acyl side, 3 side chain; on linkers, the order of the positions; unused ones are H or OH. Bridge positions count the residues as written; N and C are the ends. Square brackets hold non-standard residues; d marks the D form. Peptide text beside a SMILES is read from it. ξ: configuration not given here. ξαMeNle(6-ylidene) = CC(CCCC=[*:3])(N[*:1])C(=O)[*:2]; Nle = CCCC[C@H](N)C(=O)O

Assays:
[1] = Melting temperature determination by circular dichroism; type: physicochemical; conditions: 50 μM in ddH2O, CD at 222 nm, 5-95° C.
Experimental: To assay the effect of macrocycle formation on meltine temperature, peptidomimetic macrocycles or unmodified peptides are dissolved in distilled H2O (e.g. at a final concentration of 50 μM) and the Tm is determined by measuring the change in ellipticity over a temperature range (e.g. 4 to 95° C.) on a spectropolarimeter (e.g., Jasco J-710) using standard parameters (e.g. wavelength 222 nm; step resolution, 0.5 nm; speed, 20 nm/sec; accumulations, 10; response, 1 sec; bandwidth, 1 nm; temperature increase rate: 1° C./min; path length, 0.1 cm).
Lyophilized SP-1 was dissolved in ddH2O to a final concentration of 50 μM. Tm was determined by measuring the circular dichroism (CD) spectra in a Jasco-810 spectropolarimeter at a fixed wavelength of 222 nm between the temperatures of 5-95° C. The following parameters were used for the measurement: data pitch, 0.1° C.; bandwidth, 1 nm and path length, 0.1 cm averaging the signal for 16 seconds.

NCI-H128 = test: MTT cell viability assay, NCI-H128; type: cell-based, human; conditions: 20 μM, MTT 48 hrs, FIG. 1
Experimental: Cell viability assays shown in FIGS. 1-32 were performed according to the following protocol. Tumor cell lines were grown in specific serum-supplemented media (growth media) as necessary. A day prior to the initiation of the study, cells were plated at optimal cell density (15,000 to 25,000 cells/well) in 200 μl growth media in microtiter plates. The next day, cells were washed twice in serum-free/phenol red-free RPMI complete media (assay buffer) and a final volume of 100 μl assay buffer was added to each well. Human peripheral blood lymphocytes (hPBLs) were isolated from Buffy coats (San Diego Blood Bank) using Ficoll-Paque gradient separation and plated on the day of the experiment at 25,000 cells/well.
Peptidomimetic macrocycles were diluted from 1 mM stocks (100% DMSO) in sterile water to prepare 400 μM working solutions. The peptidomimetic macrocycles and controls were then diluted 10 or […] or alternatively serially two-fold diluted in assay buffer in dosing plates to provide concentrations of either 40 and 20 μM or between 1.2 and 40 μM, respectively. […]
Towards the end of the 4 hour incubation time, 22 μl FBS was added to each well for a total concentration of 10% FBS. […] At the end of the incubation period, MTT assay was performed according to manufacturer's instructions (Sigma, catalog #M2128) and absorbance was measured at 560 nm using Dynex Opsys MR Plate reader. […]

Mcl-1 = test: Kd, μM | Mcl-1
Excerpt: Table printed on a drawing sheet, Figure 27
Head of the field: Kd, μM | Mcl-1
First copying reader's note: The last row (ABT-737) is a small-molecule comparator; the three plots above the table are not copied.
Where the first naming reader finds the target: head: Kd, μM | Mcl-1

CCCC[C@H](NC(=O)C1(C)CCCC=CCCCC(C)(NC(=O)[C@H](C)NC(=O)[C@H](CC(C)C)NC(=O)[C@H](Cc2c[nH]cn2)NC(=O)[C@H](CCCNC(=N)N)NC(=O)[C@H](C)NC(=O)[C@@H](NC(=O)[C@H](CC(N)=O)NC(=O)[C@H](CCCNC(=N)N)NC(=O)[C@@H](NC(=O)[C@@H](NC(=O)[C@H](CC(=O)O)NC(C)=O)[C@@H](C)CC)[C@@H](C)CC)[C@@H](C)CC)C(=O)N[C@@H](C(C)C)C(=O)NCC(=O)N[C@@H](CC(=O)O)C(=O)N1)C(=O)N[C@@H](CC(=O)O)C(=O)N[C@@H](CCCNC(=N)N)C(=O)N[C@@H](CO)C(=O)N[C@H](C(N)=O)[C@@H](C)CC (stereo partly drawn) [SP-1] (Ac-DIIRNIARHLA[ξαMeNle(6-ylidene)]VGD[ξαMeNle(6-ylidene)][Nle]DRSI-NH2; staple 12-16)
temperature up to which helical conformation is maintained [1]: up to 64 °C
apoptosis of NCI-H128 (SCLC) (NCI-H128): induced apoptosis
Kd (Mcl-1): < 0.1 µM
